Key:
Gal-3 (galectin-3) [1] = target: T1, Gal-3 (galectin-3) (Homo sapiens, UniProt P17931); experiment: ELISA-type inhibition of binding to asialofetuin; details: read-out: Gal-3 IC50 ± SD [× 10^-6M]^a)
T1 construct: gene LGALS3; ELISA by an established protocol of Elling and co-workers
From the text: ELISA-type inhibition of binding to asialofetuin on Gal-3 (galectin-3)

Gal-1 (galectin-1) = target: T2, Gal-1 (galectin-1) (Homo sapiens, UniProt P09382); experiment: ELISA-type inhibition of binding to asialofetuin; details: read-out: Gal-1 IC50 ± SD [× 10^-6M]^a)
T2 construct: gene LGALS1; ELISA by an established protocol of Elling and co-workers
T2 sequence (P09382 2-135): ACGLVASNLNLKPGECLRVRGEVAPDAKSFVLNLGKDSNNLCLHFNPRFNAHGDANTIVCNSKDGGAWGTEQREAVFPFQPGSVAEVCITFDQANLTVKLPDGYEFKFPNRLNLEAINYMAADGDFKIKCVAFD
From the text: ELISA-type inhibition of binding to asialofetuin on Gal-1 (galectin-1)

Gal-3 (galectin-3) [2] = target: T1, Gal-3 (galectin-3); experiment: ELISA-type inhibition and SPR inhibition; assay type: biochemical; details: glucose non-binding control; PBS pH 7.5

T1 sequence (P17931 2-250): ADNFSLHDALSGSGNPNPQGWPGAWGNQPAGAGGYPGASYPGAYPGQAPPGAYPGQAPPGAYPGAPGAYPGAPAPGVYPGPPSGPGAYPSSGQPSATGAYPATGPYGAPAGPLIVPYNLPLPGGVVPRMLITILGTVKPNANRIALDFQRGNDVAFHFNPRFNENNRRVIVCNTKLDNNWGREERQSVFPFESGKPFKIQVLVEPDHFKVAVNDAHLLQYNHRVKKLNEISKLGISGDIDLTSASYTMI

IC50 (Gal-3 (galectin-3) [1]) [µM]	IC50 (Gal-1 (galectin-1)) [µM]	Compound	no inhibition (Gal-3 (galectin-3) [2])
123 ± 3	296 ± 70	CC(=O)NCCOCCOCCNC(=O)CCC(=O)NCCN(CCNC(=O)CCC(N)=O)C(=O)CCc1cn([C@@H]2O[C@H](CO)[C@@H](O[C@@H]3O[C@H](CO)[C@H](O)[C@H](O)[C@H]3O)[C@H](O)[C@H]2O)nn1 [1b, Lac(1)-2-Ac]	–
–	–	CC(=O)NCCOCCOCCNC(=O)CCC(=O)NCCN(CCNC(=O)CCC(=O)NCCN(CCNC(=O)CCC(=O)NCCN(CCNC(=O)CCC(=O)NCCN(CCNC(=O)CCC(=O)NCCN(CCNC(=O)CCC(N)=O)C(=O)CCc1cn(CCO[C@H]2O[C@H](CO)[C@@H](O)[C@H](O)[C@H]2O)nn1)C(=O)CCC(=O)NCc1ccccc1)C(=O)CCc1cn(CCO[C@H]2O[C@H](CO)[C@@H](O)[C@H](O)[C@H]2O)nn1)C(=O)CCC(=O)NCc1ccccc1)C(=O)CCc1cn(CCO[C@H]2O[C@H](CO)[C@@H](O)[C@H](O)[C@H]2O)nn1 [10b, Glc(1,3,5)-Bz(2,4)-6-Ac]	nonbinding carbohydrate ligand (glucose, 9b-13b), we see no inhibition in both ELISA and SPR
–	–	CC(=O)NCCOCCOCCNC(=O)CCC(=O)NCCN(CCNC(=O)CCC(=O)NCCN(CCNC(=O)CCC(=O)NCCN(CCNC(=O)CCC(=O)NCCN(CCNC(=O)CCC(=O)NCCN(CCNC(=O)CCC(N)=O)C(=O)CCc1cn(CCO[C@H]2O[C@H](CO)[C@@H](O)[C@H](O)[C@H]2O)nn1)C(=O)CCC(=O)Nc1ccc(N)cc1)C(=O)CCc1cn(CCO[C@H]2O[C@H](CO)[C@@H](O)[C@H](O)[C@H]2O)nn1)C(=O)CCC(=O)Nc1ccc(N)cc1)C(=O)CCc1cn(CCO[C@H]2O[C@H](CO)[C@@H](O)[C@H](O)[C@H]2O)nn1 [11b, Glc(1,3,5)-pNH2Ph(2,4)-6-Ac]	nonbinding carbohydrate ligand (glucose, 9b-13b), we see no inhibition in both ELISA and SPR
–	–	CC(=O)NCCOCCOCCNC(=O)CCC(=O)NCCN(CCNC(=O)CCC(=O)NCCN(CCNC(=O)CCC(=O)NCCN(CCNC(=O)CCC(=O)NCCN(CCNC(=O)CCC(=O)NCCN(CCNC(=O)CCC(N)=O)C(=O)CCc1cn(CCO[C@H]2O[C@H](CO)[C@@H](O)[C@H](O)[C@H]2O)nn1)C(=O)CCC(=O)Nc1ccc(S(=O)(=O)O)cc1)C(=O)CCc1cn(CCO[C@H]2O[C@H](CO)[C@@H](O)[C@H](O)[C@H]2O)nn1)C(=O)CCC(=O)Nc1ccc(S(=O)(=O)O)cc1)C(=O)CCc1cn(CCO[C@H]2O[C@H](CO)[C@@H](O)[C@H](O)[C@H]2O)nn1 [12b, Glc(1,3,5)-pSO3H Ph(2,4)-6-Ac]	nonbinding carbohydrate ligand (glucose, 9b-13b), we see no inhibition in both ELISA and SPR
